The test system of data set [1] is Salmonella typhimurium. Briefly: Antibacterial activity against Salmonella Typhimurium ATCC 13311. The format is functional, Salmonella enterica subsp. enterica serovar Typhimurium. The following applies: Salmonella enterica.
Data set [2] relates to Mycobacterium. Briefly: Antibacterial activity against Mycobacterium ranae ATCC 110. Format: functional.
Data set [3] relates to Staphylococcus aureus. Briefly: Antibacterial activity against methicillin/gentamicin/tetracycline resistant Staphylococcus aureus ATCC 33592. The format is functional.
Data set [4] in a line: Toxicity to mouse RBC assessed as hemolytic activity at 100 uM. The format is cell-based, Erythrocyte. Conditions: red blood cells, read-out: Activity.

Values after ≈ are worked out from the molar mass of the structure shown. Active and inactive are the calls of the source. The rule behind the calls is not given here. Non-standard residues stand in square brackets, D forms with d. Residues, ends and D or L forms follow the SMILES beside them. ξ: configuration not given here. Phe(4-NO2) = N[C@@H](Cc1ccc([N+](=O)[O-])cc1)C(=O)O; Pro(3ξ,4ξ-(CH2)4) = O=C(O)[C@H]1NCC2CCCCC21; Oic = O=C(O)[C@@H]1C[C@@H]2CCCC[C@@H]2N1; Pro(3,4-benzo) = O=C(O)[C@H]1NCc2ccccc21; Tic = O=C(O)[C@@H]1Cc2ccccc2CN1; βAla = NCCC(=O)O

For the molecule `CC(=O)NCC(=O)N[C@@H](Cc1ccccc1)C(=O)N1Cc2ccccc2C[C@H]1C(=O)N1[C@H](C(=O)NCC(=O)N[C@H](CCCCN)C(=O)N2Cc3ccccc3C[C@H]2C(=O)N2[C@H](C(=O)NCC(=O)N[C@@H](Cc3ccccc3)C(=O)N3Cc4ccccc4C[C@H]3C(=O)N3[C@H](C(=O)NCC(=O)N[C@H](CCCCN)C(=O)N4Cc5ccccc5C[C@H]4C(=O)N[C@@H](CCCCN)C(=O)N[C@@H](CCCCN)C(=O)N[C@@H](CCCCN)C(=O)N[C@@H](CCCCN)C(N)=O)C[C@@H]4CCCC[C@@H]43)C[C@@H]3CCCC[C@@H]32)C[C@@H]2CCCC[C@@H]21` (Ac-GF[Tic][Oic]G[dK][Tic][Oic]GF[Tic][Oic]G[dK][Tic]KKKK-NH2), the MIC in data set [1], in data set [2] and in data set [3] was 10 µM (≈ 24.4 µg/mL) throughout. On to `CC(=O)NCC(=O)N[C@@H](Cc1ccc([N+](=O)[O-])cc1)C(=O)N1Cc2ccccc2C[C@H]1C(=O)N1CC2CCCCC2[C@H]1C(=O)NCC(=O)N[C@@H](CCCCN)C(=O)N1Cc2ccccc2C[C@H]1C(=O)N1CC2CCCCC2[C@H]1C(=O)NCC(=O)N[C@@H](Cc1ccc([N+](=O)[O-])cc1)C(=O)N1Cc2ccccc2C[C@H]1C(=O)N1CC2CCCCC2[C@H]1C(=O)NCC(=O)N[C@@H](CCCCN)C(=O)N1Cc2ccccc2C[C@H]1C(=O)N[C@@H](CCCCN)C(=O)N[C@@H](CCCCN)C(=O)N[C@@H](CCCCN)C(=O)N[C@@H](CCCCN)C(N)=O` (stereo partly specified) (Ac-G[Phe(4-NO2)][Tic][Pro(3ξ,4ξ-(CH2)4)]GK[Tic][Pro(3ξ,4ξ-(CH2)4)]G[Phe(4-NO2)][Tic][Pro(3ξ,4ξ-(CH2)4)]GK[Tic]KKKK-NH2), for which the MIC worked out at 30 µM (≈ 75.9 µg/mL) in data set [1], 10 µM (≈ 25.3 µg/mL) in data set [2] and 10 µM (≈ 25.3 µg/mL) in data set [3]. With `CC(=O)NCC(=O)N[C@H](Cc1ccccc1)C(=O)N1Cc2ccccc2C[C@H]1C(=O)N1[C@H](C(=O)NCC(=O)N[C@@H](CCCCN)C(=O)N2Cc3ccccc3C[C@H]2C(=O)N2[C@H](C(=O)NCC(=O)N[C@H](Cc3ccccc3)C(=O)N3Cc4ccccc4C[C@H]3C(=O)N3[C@H](C(=O)NCC(=O)N[C@@H](CCCCN)C(=O)N4Cc5ccccc5C[C@H]4C(=O)N[C@@H](CCCCN)C(=O)N[C@@H](CCCCN)C(=O)N[C@@H](CCCCN)C(=O)N[C@@H](CCCCN)C(N)=O)C[C@@H]4CCCC[C@@H]43)C[C@@H]3CCCC[C@@H]32)C[C@@H]2CCCC[C@@H]21` (Ac-G[dF][Tic][Oic]GK[Tic][Oic]G[dF][Tic][Oic]GK[Tic]KKKK-NH2), the MIC in data set [1] came to 10 µM (≈ 24.4 µg/mL); in data set [2], 10 µM (≈ 24.4 µg/mL); in data set [3], 3 µM (≈ 7.32 µg/mL). For `CSCC[C@H](NC(=O)[C@H](CC(C)C)NC(=O)[C@H](CCC(=O)O)NC(=O)[C@@H]1c2ccccc2CN1C(=O)[C@@H]1Cc2ccccc2CN1C(=O)[C@H](Cc1ccccc1)NC(=O)CCNC(=O)[C@@H]1c2ccccc2CN1C(=O)[C@@H]1Cc2ccccc2CN1C(=O)[C@H](CCCCN)NC(=O)CCNC(=O)[C@@H]1c2ccccc2CN1C(=O)[C@@H]1Cc2ccccc2CN1C(=O)[C@H](Cc1ccccc1)NC(=O)CCNC(=O)[C@@H]1c2ccccc2CN1C(=O)[C@@H]1Cc2ccccc2CN1C(=O)[C@H](CCCCN)NC(=O)CCNC(=O)CCNC(=O)CNC(=O)[C@H](CC(C)C)NC(=O)CNC(=O)[C@H](CCCCN)NC(=O)CNC(=O)[C@@H](N)CCC(=O)O)C(=O)N[C@@H](CC(N)=O)C(=O)N[C@@H](CO)C(N)=O` (H-EGKGLG[βAla][βAla]K[Tic][Pro(3,4-benzo)][βAla]F[Tic][Pro(3,4-benzo)][βAla]K[Tic][Pro(3,4-benzo)][βAla]F[Tic][Pro(3,4-benzo)]ELMNS-NH2), the hemolysis at 100 µM in data set [4] turned out to be 27%. With `CC(C)C[C@H](NC(=O)[C@@H]1C2CCCCC2CN1C(=O)[C@@H]1Cc2ccccc2CN1C(=O)CNC(=O)[C@H](CCCCN)NC(=O)CNC(=O)[C@@H]1C2CCCCC2CN1C(=O)[C@@H]1Cc2ccccc2CN1C(=O)[C@H](CO)NC(=O)[C@H](CC(C)C)NC(=O)[C@@H](N)CCC(=O)O)C(=O)N[C@@H](CCCCN)C(=O)N[C@@H](CCC(=O)O)C(=O)N[C@@H](CO)C(N)=O` (stereo partly specified) (H-ELS[Tic][Pro(3ξ,4ξ-(CH2)4)]GKG[Tic][Pro(3ξ,4ξ-(CH2)4)]LKES-NH2), in data set [4], the hemolysis at 100 µM worked out at 23%. Regarding `CSCC[C@H](NC(=O)[C@H](CC(C)C)NC(=O)[C@H](CCC(=O)O)NC(=O)[C@@H]1C[C@@H]2CCCC[C@@H]2N1C(=O)[C@@H]1Cc2ccccc2CN1C(=O)[C@H](Cc1ccccc1)NC(=O)CNC(=O)[C@@H]1C[C@@H]2CCCC[C@@H]2N1C(=O)[C@@H]1Cc2ccccc2CN1C(=O)[C@H](CCCNC(=N)N)NC(=O)CNC(=O)[C@@H]1C[C@@H]2CCCC[C@@H]2N1C(=O)[C@@H]1Cc2ccccc2CN1C(=O)[C@H](Cc1ccccc1)NC(=O)CNC(=O)[C@@H]1C[C@@H]2CCCC[C@@H]2N1C(=O)[C@@H]1Cc2ccccc2CN1C(=O)[C@H](CCCNC(=N)N)NC(=O)CNC(=O)[C@@H]1C[C@@H]2CCCC[C@@H]2N1C(=O)[C@@H]1Cc2ccccc2CN1C(=O)[C@H](CC(C)C)NC(=O)CNC(=O)[C@H](CCCCN)NC(=O)CN)C(=O)N[C@@H](CC(N)=O)C(=O)N[C@@H](CO)C(N)=O` (H-GKGL[Tic][Oic]GR[Tic][Oic]GF[Tic][Oic]GR[Tic][Oic]GF[Tic][Oic]ELMNS-NH2), the hemolysis at 100 µM in data set [4] came out at 70%. On the same count and under the same terms, for `CC(C)C[C@H](NC(=O)CNC(=O)[C@H](CCCCN)NC(=O)CN)C(=O)N1Cc2ccccc2C[C@H]1C(=O)N1[C@H](C(=O)NCC(=O)N[C@@H](CCCNC(=N)N)C(=O)N2Cc3ccccc3C[C@H]2C(=O)N2[C@H](C(=O)NCC(=O)N[C@@H](Cc3ccccc3)C(=O)N3Cc4ccccc4C[C@H]3C(=O)N3[C@H](C(=O)NCC(=O)N[C@@H](CCCNC(=N)N)C(=O)N4Cc5ccccc5C[C@H]4C(=O)N4[C@H](C(=O)NCC(=O)N[C@@H](Cc5ccccc5)C(=O)N5Cc6ccccc6C[C@H]5C(=O)N5[C@H](C(=O)NCC(=O)N[C@@H](CCCNC(=N)N)C(=O)N6Cc7ccccc7C[C@H]6C(=O)N6[C@H](C(=O)NCC(=O)N[C@@H](CCCCN)C(=O)N[C@@H](CCCNC(=N)N)C(N)=O)C[C@@H]7CCCC[C@@H]76)C[C@@H]6CCCC[C@@H]65)C[C@@H]5CCCC[C@@H]54)C[C@@H]4CCCC[C@@H]43)C[C@@H]3CCCC[C@@H]32)C[C@@H]2CCCC[C@@H]21` (H-GKGL[Tic][Oic]GR[Tic][Oic]GF[Tic][Oic]GR[Tic][Oic]GF[Tic][Oic]GR[Tic][Oic]GKR-NH2) the value was 100%; for `CSCC[C@H](NC(=O)[C@H](CC(C)C)NC(=O)[C@H](CCC(=O)O)NC(=O)[C@@H]1C[C@@H]2CCCC[C@@H]2N1C(=O)[C@@H]1Cc2ccccc2CN1C(=O)[C@H](Cc1ccccc1)NC(=O)CCNC(=O)[C@@H]1C[C@@H]2CCCC[C@@H]2N1C(=O)[C@@H]1Cc2ccccc2CN1C(=O)[C@H](CCCCN)NC(=O)CCNC(=O)[C@@H]1C[C@@H]2CCCC[C@@H]2N1C(=O)[C@@H]1Cc2ccccc2CN1C(=O)[C@H](Cc1ccccc1)NC(=O)CCNC(=O)[C@@H]1C[C@@H]2CCCC[C@@H]2N1C(=O)[C@@H]1Cc2ccccc2CN1C(=O)[C@H](CCCCN)NC(=O)CCNC(=O)[C@@H]1C[C@@H]2CCCC[C@@H]2N1C(=O)[C@@H]1Cc2ccccc2CN1C(=O)[C@H](CC(C)C)NC(=O)CNC(=O)[C@H](CCCCN)NC(=O)CN)C(=O)N[C@@H](CC(N)=O)C(=O)N[C@@H](CO)C(N)=O` (H-GKGL[Tic][Oic][βAla]K[Tic][Oic][βAla]F[Tic][Oic][βAla]K[Tic][Oic][βAla]F[Tic][Oic]ELMNS-NH2), 55%; for `CC(C)C[C@H](NC(=O)CNC(=O)[C@H](CCCCN)NC(=O)CN)C(=O)N1Cc2ccccc2C[C@H]1C(=O)N1CC2CCCCC2[C@H]1C(=O)N[C@@H](Cc1ccccc1)C(=O)N[C@@H](CCCCN)C(=O)N1Cc2ccccc2C[C@H]1C(=O)N1CC2CCCCC2[C@H]1C(=O)N[C@@H](CCCCN)C(=O)N[C@@H](Cc1ccccc1)C(=O)N1Cc2ccccc2C[C@H]1C(=O)N1CC2CCCCC2[C@H]1C(=O)N[C@@H](Cc1ccccc1)C(=O)N[C@@H](CCCCN)C(=O)N1Cc2ccccc2C[C@H]1C(=O)N1CC2CCCCC2[C@H]1C(=O)N[C@@H](CCCCN)C(=O)N[C@@H](Cc1ccccc1)C(=O)N1Cc2ccccc2C[C@H]1C(=O)N1CC2CCCCC2[C@H]1C(=O)N[C@@H](Cc1ccccc1)C(=O)N[C@@H](CCCCN)C(=O)N1Cc2ccccc2C[C@H]1C(=O)N1CC2CCCCC2[C@H]1C(=O)N[C@@H](Cc1ccccc1)C(=O)N[C@@H](CCCCN)C(=O)N[C@@H](CCCNC(=N)N)C(N)=O` (stereo partly specified) (H-GKGL[Tic][Pro(3ξ,4ξ-(CH2)4)]FK[Tic][Pro(3ξ,4ξ-(CH2)4)]KF[Tic][Pro(3ξ,4ξ-(CH2)4)]FK[Tic][Pro(3ξ,4ξ-(CH2)4)]KF[Tic][Pro(3ξ,4ξ-(CH2)4)]FK[Tic][Pro(3ξ,4ξ-(CH2)4)]FKR-NH2), 100%. As for `CC(C)C[C@H](NC(=O)CNC(=O)[C@H](CCCCN)NC(=O)CN)C(=O)N1Cc2ccccc2C[C@H]1C(=O)N1CC2CCCCC2[C@H]1C(=O)NCC(=O)N[C@@H](CCCNC(=N)N)C(=O)N1Cc2ccccc2C[C@H]1C(=O)N1CC2CCCCC2[C@H]1C(=O)NCC(=O)N[C@@H](Cc1ccccc1)C(=O)N1Cc2ccccc2C[C@H]1C(=O)N1CC2CCCCC2[C@H]1C(=O)NCC(=O)N[C@@H](CCCNC(=N)N)C(=O)N1Cc2ccccc2C[C@H]1C(=O)N1CC2CCCCC2[C@H]1C(=O)NCC(=O)N[C@@H](Cc1ccccc1)C(=O)N1Cc2ccccc2C[C@H]1C(=O)N1CC2CCCCC2[C@H]1C(=O)NCC(=O)N[C@@H](CCCNC(=N)N)C(=O)N1Cc2ccccc2C[C@H]1C(=O)N1CC2CCCCC2[C@H]1C(=O)NCC(=O)N[C@@H](CCCCN)C(=O)N[C@@H](CCCNC(=N)N)C(N)=O` (stereo partly specified) (H-GKGL[Tic][Pro(3ξ,4ξ-(CH2)4)]GR[Tic][Pro(3ξ,4ξ-(CH2)4)]GF[Tic][Pro(3ξ,4ξ-(CH2)4)]GR[Tic][Pro(3ξ,4ξ-(CH2)4)]GF[Tic][Pro(3ξ,4ξ-(CH2)4)]GR[Tic][Pro(3ξ,4ξ-(CH2)4)]GKR-NH2), in data set [2], the result was inactive.

In general, MIC refers to the lowest concentration that inhibits growth of the organism. The low end stands for inhibition by little substance, the high end for a need for much substance.
